From patent US20220257741A1, “COMBINATION THERAPY FOR CANCER” (IO Biotech ApS, priority 2016, published 2022)
Several values for one entry are separate records, joined by “and”; a condition that tells them apart may be missing. Equal values may be shown once. Entries after “also recorded” stand apart in the source; their conditions may differ.

How the values were obtained:
THP-1 cells = test: 51Cr-release assay, PBMC killing of THP-1 (Example 4); type: cell-based; conditions: peptide 0.1 μM, day 17, range of E/T ratios
Protocol: Buffycoats were thawed (day 0), washed twice, resuspended in medium, counted and plated into wells as set out in Table Z4. THP-1 cells were irradiated with 30 GY and washed twice in medium. THP-1 cells were counted and added to PBMC containing wells as set out in Table Z4 (total volume 2 ml). Plates were placed in an incubator at 37 degrees. On days 7 and 14, 1 ml supernatant/well was removed. Cells were harvested and analyzed for cytotoxic activity on day 17. A standard ^51Cr-release assay was used to measure the cytotoxic potential of the peptide treated PBMCs. ^51Cr labeled THP-1 cells were used as target cells and peptide treated PBMCs as effector cells. Triton-X treated wells was used as maximum measurable lysis and medium alone as minimum lysis.
% Specific lysis=((cpmsample−cpmminimum)/(cpmmaximum−cpmminimum))×100%

[1] = Phase I clinical trial, adverse events graded by CTCAE v. 4.0; type: in vivo, human
Source text: Patients were enrolled in a First-in-Human phase I clinical trial at the Department of Oncology at Herlev Hospital, University of Copenhagen (Herlev, Denmark) from March 2014 to August 2014. The study was originally designed as a two-armed phase I study, combining IDO1-derived peptide vaccination with standard-of-care treatment with either Ipilimumab or Vemurafenib. Only data from patients treated with Ipilimumab in combination with vaccine is reported. […]
Primary end-point was toxicity. In addition, immune-response against the vaccine peptide and the clinical benefit of treatment were assessed. […]
Safety of the study treatment was assessed in terms of occurrence of adverse events, graded according to Common Terminology Criteria for Adverse Events (CTCAE) version 4.0. Anti-tumour activity was evaluated with positron emission tomography-computed tomography (PET-CT) scans obtained at baseline (up to 28 days before treatment initiation) after 12 weeks and every 8-12 weeks thereafter until progression. CT scans were evaluated according to Response Evaluation Criteria In Solid Tumors (RECIST) version 1.1. […]

PBMC = test: Direct IFN-γ ELISpot of patient PBMC stimulated with IO102 peptide; type: cell-based, human; conditions: patients treated with Ipilimumab without IDO-vaccine, before and after three series
[2] = system: Tregs and MDSC in peripheral blood; test: Flow cytometry of regulatory cells in peripheral blood of patients; type: in vivo, human; conditions: patients treated with Ipilimumab without the vaccine (data not shown)
Protocol: PBMC samples was thawed in 37° C. RPMI 1640 medium (Lonza) supplemented with 2.5 ml DNAse containing Pulmozyme (Roche) and 0.26 mmol MgCl (Herlev Hospital Pharmacy) per 100 ml buffer. All stainings were done in phosphate buffered saline (PBS)(Lonza) containing 0.5% bovine serum albumin (Sigma-Aldrich). The following antibodies were used: FoxP3-PE, HLA-DR-HV500, CD3-PE-Cy7, CD19-PE-Cy7, CD56-PE-Cy7, CD4-HV500, CD11b-APC, CD3-APC (purchased from BD Bioscience), CD33-FITC, CD124-PE (purchased from BD Pharmigen), HELIOS-PerCP-Cy5.5, CD14-BV421, CD25-BV421 (all purchased from Biolegend), CD127-FITC, CD39-PE-Cy7 (purchased from eBioscience). Additionally, all samples were stained with the LIVE/DEADR Fixable Near-IR Dead Cell Stain Kit (life technologies). For intracellular staining of transcription factors, we used the Foxp3/Transcription Factor Staining Buffer Set (eBioscience) according to the manufacturors instructions. Cells were acquired on a FACSCanto II using FACSDiva Software version 6.1.3 (BD Biosciences). Analysis of flow data was done using FlowJo software version 10 OSX (TreeStar, Inc., Ashland, Oreg.). Data-analysis was done after filtering of dead cells and doublets/triplets.
Tregs were defined as CD3+CD4+CD25highCD127-FOXP3+.
MDSC were defined as PBMC negative for lineage-markers CD3, CD19 and CD56 and additionally HLADR-/lowCD14+CD11b+CD33+CD124−.

metastatic melanoma = conditions: phase III; cited from earlier work
TC-1 tumour = TC-1 tumour model, peptide vaccination (Examples 7 and 8); type: in vivo, C57BL/6 mice
Protocol: C57BL/6 mice harbouring TC-1 tumour were treated with TC-1 specific E7-peptide ([…]; SEQ ID NO: 35) or IDO-Pep1 ([…]; SEQ ID NO: 33) and the efficacy of the peptide vaccines was assessed by tumour burden and survival. The mouse IDO peptide sequence (IDO-Pep1) was selected to provide a murine analog for the human IDO peptides tested in the earlier Examples, because the sequence of murine IDO1 differs to that of human IDO1.
4-6 week-old C57BL/6 mice were injected with 70,000 cell/ mouse of TC-1 cells. Treatment in respective groups was started when tumour reached an average size of approximately 0.075 cm3 (approx. 10 days after tumour inoculation). Peptides used for vaccination included TC1-specific E7-peptide ([…]; SEQ ID NO: 35) and IDO-Pep1 ([…]; SEQ ID NO: 33). The mouse IDO peptide was designed based on MHC class I and II binding algorithm. […] Mice were vaccinated two-three times with one-week interval, and the efficacy of the peptide vaccines was assessed by measuring tumour volume and/or overall survival.
C57BL/6 mice harbouring TC-1 tumour were treated with TC-1 specific E7-peptide ([…]; SEQ ID NO: 35), or IDO-Pep1 ([…]; SEQ ID NO: 33), or a combination of both E7 and IDO-Pep1. The efficacy of the vaccines was assessed by overall survival. […]

With CILDSKLEVEALAQLLTFALK [IDO scrambled] the “Allogenic killing (lysis) of THP-1 cells by PBMCs” value (THP-1 cells) was “induced less lysis of THP-1 cells”.

In the case of Ipilimumab, the “Toxicity, Ipilimumab” value ([1]; adverse reactions by CTCAE v. 4.0, one table line per patient (01i-13i), attributed by treating physician, Ipilimumab 3 mg/kg plus IO102 vaccine) is reported as “Grade II choroiditis and None (3×) and Pruritus grade I, Grade I and diarrhoea, and Grade II rash, grade II and diarrhoea (2×) and Grade II rash and Grade II rosacea, grade III and Grade II pruritus and Grade I nausea”, the “Adverse reactions most likely related to Ipilimumab treatment” value ([1]; individual patients, CTCAE grade) is reported as “Two patients experienced grade II diarrhoea; also recorded: grade III diarrhoea; also recorded: two patients experienced grade II maculopapular rash; also recorded: flare in their pre-existing rosacea; also recorded: grade II choroiditis” and the “Induction of IDO-specific cells (IO102 reactivity, ELISpot)” value (PBMC) is reported as “no induction of IDO-specific cells”. For the same substance, the “Level of MDSC in peripheral blood” value [2] was “no change in MDSC”, the “Level of Tregs in peripheral blood” value [2] was “Reduced levels of Tregs” and the Clinical benefit rate (metastatic melanoma) was roughly 30%. The Overall response rate (metastatic melanoma) was 10.9%.

With “MTYENMDIL (listed as Mus musculus) [IDO-Pep1]” the “Anti-tumour effect (tumour volume and survival)” value (TC-1 tumour; 100 μg/mouse s.c. with PADRE and QuilA, therapeutic) was “anti-tumour protective effect; also recorded: greater protection than when vaccinated with tumour-specific peptide antigen, E7 peptide”.

In the case of “RAHYNIVTF (Fragment of the E7 oncoprotein of HPV) [E7 peptide]”, the “Protection (overall survival)” value (TC-1 tumour; 100 μg/mouse of each peptide s.c. with PADRE and QuilA) is reported as “has therapeutic efficacy”.
